Data from PMC10706425, “Enhancing the Antimicrobial Properties of Peptides through Cell-Penetrating Peptide Conjugation: A Comprehensive Assessment” (International Journal of Molecular Sciences, 2023).

Experiments:
[1] = system: B. cereus (IP 5832 strain); assay: Antibacterial activity in liquid medium; type: cell-based, Bacillus cereus; conditions: 15 h incubation; tested 0.75–12 µM; gentamicin 200 µM; Figures 3, 4
Source text: (§1) Two S. aureus strains were used: a susceptible strain 209P and a clinical isolate strain 129B (resistant to antibiotics: benzylpenicillin, clindamycin, erythromycin, oxacillin, sulfamethoxazole, and vancomycin). Two MRSA strains were included: a susceptible strain ATCC 43300 (resistant to antibiotics: methicillin, oxacillin (beta-lactam antibiotics), ampicillin (https://www.atcc.org/products/43300 (accessed on 11 November 2023)) and a clinical isolate strain SA 180 (resistant to antibiotics: benzylpenicillin and oxacillin (beta-lactam antibiotics), ciprofloxacin, clindamycin, erythromycin, levomycetin, sulfamethoxazole, and vancomycin). One B. cereus was used: a susceptible strain, IP 5832. Two P. aeruginosa strains were included: a susceptible strain, ATCC 28753, and a resistant strain, 2943. Two E. coli strains were used: a susceptible strain, K12, and a susceptible strain, MG1655.
(§2) Determination of the growth for the bacteria S. aureus strain 209P, MRSA strain ATCC 43300, B. cereus strain IP 5832, P. aeruginosa strain ATCC 28753, and E. coli strain K12 was performed using Mueller–Hinton Broth (MHB) (Sigma-Aldrich, St. Louis, MO, USA). Bacteria of S. aureus (strain 129B) and MRSA (strain SA 180-F) were grown on the brain-heart infusion (BHI) medium, and bacteria of P. aeruginosa (strain 2943) and E. coli (strain MG1655) were grown on the LB medium. The preparation and co-incubation of peptides with bacteria were carried out as described previously. The samples were grown at 37 °C.

E. coli (MG1655 strain) = assay: Antibacterial activity in liquid medium; type: cell-based, Escherichia coli; conditions: LB medium, 37 °C
Source text: as §1, §2

E. coli (K12 strain) = assay: Antibacterial activity in liquid medium; type: cell-based, Escherichia coli; conditions: for Peptide Activity in Liquid Medium after 15 h of Incubation (Gentamicin as Positive Control): K12 strain, Mueller–Hinton broth, 37 °C, 2% DMSO; for Concentrations at which the peptide showed an antimicrobial effect (comparable to gentamicin): 15 h incubation, tested 0.75–12 µM, gentamicin 200 µM, Figures 3, 4
Source text: as §1, §2

[2] = system: P. aeruginosa (2943 strain); assay: Antibacterial activity in liquid medium, resistant strain; type: cell-based, Pseudomonas aeruginosa; conditions: LB medium, 37 °C
Source text: as §1, §2

S. aureus (209P strain) = assay: Antibacterial activity in liquid medium; type: cell-based, Staphylococcus aureus; conditions: for Peptide Activity in Liquid Medium after 15 h of Incubation (Gentamicin as Positive Control): 209P strain, Mueller–Hinton broth, 37 °C, 2% DMSO; for Concentrations at which the peptide showed an antimicrobial effect (comparable to gentamicin): 15 h incubation, tested 0.75–12 µM, gentamicin 200 µM, Figures 3, 4
Source text: as §1, §2

MRSA (ATCC 43300 strain) = assay: Antibacterial activity in liquid medium; type: cell-based, Methicillin-resistant Staphylococcus aureus; conditions: for Concentrations at which the peptide showed an antimicrobial effect (comparable to gentamicin): 15 h incubation, tested 0.75–12 µM, gentamicin 200 µM, Figures 3, 4; for Peptide Activity in Liquid Medium after 15 h of Incubation (Gentamicin as Positive Control): ATCC 43300 strain, Mueller–Hinton broth, 37 °C, 2% DMSO
Source text: as §1, §2

S. aureus (129B strain) = assay: Antibacterial activity in liquid medium, clinical isolate; type: cell-based, Staphylococcus aureus; conditions: BHI medium, 37 °C
Source text: as §1, §2

MRSA (SA 180-F strain) = assay: as above; type: cell-based, Methicillin-resistant Staphylococcus aureus; conditions: BHI medium, 37 °C
Source text: as §1, §2

[3] = system: P. aeruginosa (ATCC 28753 strain); assay: Antibacterial activity in liquid medium; type: cell-based, Pseudomonas aeruginosa; conditions: for Concentrations at which the peptide showed an antimicrobial effect (comparable to gentamicin): 15 h incubation, tested 0.75–12 µM, gentamicin 200 µM, Figures 3, 4; for Peptide Activity in Liquid Medium after 15 h of Incubation (Gentamicin as Positive Control): ATCC 28753, Mueller–Hinton broth, 37 °C, 2% DMSO
Source text: as §1, §2

[4] = Thioflavin T fluorescence assay for amyloid-like aggregates; type: physicochemical; conditions: 24 h, 37 °C, 450 rpm; 50 mM TrisHCl pH 7.5, 150 mM NaCl, 20% DMSO; 200 µM ThT; peptide up to 190–380 μM (1 mg/mL)
Source text: ThT, a benzothiazole dye, is known for its unique property of binding to amyloids and amyloid-like fibrils. This interaction results in a substantial increase in the fluorescence intensity of ThT, typically observed at a wavelength of around 485 nm.
The spectra of fluorescence intensity of free ThT and in solution with individual peptides were studied by us using the method of fluorescence spectroscopy as described previously.

human skin fibroblasts [5] = assay: Cytotoxic effect, calcein AM / propidium iodide flow cytometry; type: cell-based; conditions: 50 µg/mL, with and without pre-incubation; 96 h
Description: (§3) The culture of normal human fibroblasts was obtained from the skin areas of the inner surface of the forearm of healthy volunteers after their consent using the explant method. All volunteers gave their informed consent for inclusion before they participated in the study. The study was conducted in accordance with the Declaration of Helsinki, and the protocol was approved by the Ethics Committee of ITEB RAS No. 43/2023. The culture of normal human fibroblasts was obtained from the skin areas of the inner surface of the forearm using the explant method. A 5 × 5 mm skin explant was washed for several minutes in phosphate buffer containing 400 μg/mL gentamicin sulfate. […] After the release of cells from the fragments, the cells were detached from the surface of the culture plastic, and the number of cells was determined. […]
The number of living and dead cells was determined by staining cells with the fluorescent dyes calcein AM (Sigma-Aldrich, St. Louis, MO, USA) and propidium iodide (Sigma-Aldrich, St. Louis, MO, USA). […] Live and dead cells were analyzed using a BD Accuri C6 flow cytometer (BD Bioscience, San Jose, CA, USA).

human skin fibroblasts [6] = assay: Cytostatic effect, cell cycle phases and mitotic activity; type: cell-based; conditions: 50 μg/mL, with and without pre-incubation
Description: as §3
(§4) To determine the mitotic activity, the cells were washed in phosphate-buffered saline (300 g, 5 min) and fixed with 70% ethanol (24 h, −20 °C). Then, they were stained with bisBenzimide H 33342 fluorescent dye at a concentration of 1 μg/mL for 10 min at room temperature, and the number of mitotic cells was counted using a DM 6000 fluorescent microscope (Leica, Wetzlar, Germany). At least 500 cells were analyzed.

BT474 cells = assay: Cytotoxic effect, calcein AM / propidium iodide flow cytometry; type: cell-based, human; conditions: 50 µg/mL, with and without pre-incubation; 96 h
Description: (§5) BT474 human breast duct carcinoma cells were obtained from the American Collection of Type Cell Cultures (Manassas, Virginia, VA, USA). BT474 cells were cultured in DMEM medium (Sigma-Aldrich, St. Louis, MO, USA) supplemented with 10% fetal calf serum (Gibco, Waltham, MA, USA) and 40 μg/mL gentamicin sulfate (Sigma-Aldrich, St. Louis, MO, USA) at 37 °C under conditions of 5% CO2 in the air.
The number of living and dead cells was determined by staining cells with the fluorescent dyes calcein AM (Sigma-Aldrich, St. Louis, MO, USA) and propidium iodide (Sigma-Aldrich, St. Louis, MO, USA). Cells were detached from the surface of the samples using an Accutase cocktail. Cells were stained in L-15 medium with 1% fetal bovine serum containing 1 μg/mL calcein AM and 2 μg/mL propidium iodide for 25 min at 37 °C. Live and dead cells were analyzed using a BD Accuri C6 flow cytometer (BD Bioscience, San Jose, CA, USA).

[7] = over the tested concentration range; cited from earlier work
Description: Analysis of the cytostatic effect was performed on the basis of the distribution of cells by phases of the cell cycle and mitotic activity.

BT-474 cells = assay: Cytostatic effect, cell cycle phases and mitotic activity; type: cell-based, human; conditions: 50 μg/mL, with and without pre-incubation
Description: as §5
To study the distribution of cells over the phases of the cell cycle, cells were collected, washed in phosphate-buffered saline (300 g, 5 min), and fixed with 70% ethanol (24 h, −20 °C). Staining was carried out for 15 min at 37 °C in the following medium: phosphate-buffered saline, 0.1% Triton X100, 10 μg/mL propidium iodide, and 100 μg/mL RNase (Biolot, St. Petersburg, Russia). The analysis was performed using a BD Accuri C6 flow cytometer (BD Bioscience, San Jose, CA, USA). The obtained results were processed in the ModFit LT 4.1 program.
as §4

bacteria = conditions: cited from earlier work
Source text: Generally, the mechanisms by which AMPs act against bacteria depend on the properties of the bacterial cell wall. Gram-positive bacteria have a thick peptidoglycan layer, while Gram-negative bacteria have an outer membrane and a thinner peptidoglycan layer, which can impact the effectiveness of different antimicrobial strategies. […] If the peptide contained only the Antp fragment, then, in general, its antimicrobial activity was lower com ...

Row | Sequence | Concentrations at which the peptide showed an antimicrobial effect (comparable to gentamicin) [1] | Peptide Activity in Liquid Medium after 24 h of Incubation (Meropenem as a Positive Control) (E. coli (MG1655 strain)) | Peptide Activity in Liquid Medium after 15 h of Incubation (Gentamicin as Positive Control) (E. coli (K12 strain)) | Peptide Activity in Liquid Medium after 24 h of Incubation (Meropenem as a Positive Control) [2] | Peptide Activity in Liquid Medium after 15 h of Incubation (Gentamicin as Positive Control) (S. aureus (209P strain)) | Concentrations at which the peptide showed an antimicrobial effect (comparable to gentamicin) (S. aureus (209P strain)) | Concentrations at which the peptide showed an antimicrobial effect (comparable to gentamicin) (MRSA (ATCC 43300 strain)) | Peptide Activity in Liquid Medium after 15 h of Incubation (Gentamicin as Positive Control) (MRSA (ATCC 43300 strain)) | Peptide Activity in Liquid Medium after 24 h of Incubation (Meropenem as a Positive Control) (S. aureus (129B strain)) | Peptide Activity in Liquid Medium after 24 h of Incubation (Meropenem as a Positive Control) (MRSA (SA 180-F strain)) | Concentrations at which the peptide showed an antimicrobial effect (comparable to gentamicin) [3] | Peptide Activity in Liquid Medium after 15 h of Incubation (Gentamicin as Positive Control) [3] | ThT fluorescence intensity at ~485 nm [4] | Concentrations at which the peptide showed an antimicrobial effect (comparable to gentamicin) (E. coli (K12 strain)) | Cytotoxic effect (human skin fibroblasts [5]) | Proliferative activity (cytostatic effect) (human skin fibroblasts [6]) | Cytotoxic effect (BT474 cells) | Cytotoxic effect [7] | Proliferative activity (cytostatic effect) (BT-474 cells) | Concentration with antibacterial activity, amyloidogenic fragment alone (bacteria)
1 | RKKRRQRRRGGGGITDFGIFIGLGGGGSRQIKIWFQNRRMKWKK [R44K^P, CPP1 + amyloidogenic fragment of S1 from P. aeruginosa + CPP2, dihybrid peptide, 44 a.a] | 3 to 12 µM | >1930 µM, MG1655 strain | >12 µM, K12 strain | ≥1930 µM, 2943 strain | 12 µM | 12 µM | 12 µM | 12 µM | >1930 µM, 129B strain | >1930 µM, SA 180-F strain | 6 to 12 µM | 6 µM |  |  |  |  |  |  |  | 
2 | RKKRRQRRRGGGGITDFGIFIGL [R23L^P] | 1.5 to 12 µM | ≥3780 µM, MG1655 strain | 12 µM | ≥3780 µM, 2943 strain | 12 µM | 12 µM | 12 µM | 12 µM | >3780 µM, 129B strain | >3780 µM, SA 180-F strain | 6 to 12 µM |  | multiple increase in the fluorescence intensity of ThT | 12 µM | lacked cytotoxic effects | did not even suppress their proliferative activity | lacked cytotoxic effects | not been shown to have significant effects | did not even suppress their proliferative activity | 
3 | ITDFGIFIGLGGGGSRQIKIWFQNRRMKWKK [I31K^P, Amyloidogenic fragment of S1 from P. aeruginosa + CPP2 (Antennapedia fragment), 31 a.a] | 12 µM | >2750 µM, MG1655 strain | >12 µM, K12 strain | >2750 µM, 2943 strain | >12 µM, 209P strain | did not show strong effects | did not show strong effects | >12 µM, ATCC 43300 strain | >2750 µM, 129B strain | >2750 µM, SA 180-F strain | not found | >12 µM, ATCC 28753 |  |  | lacked cytotoxic effects | did not even suppress their proliferative activity | lacked cytotoxic effects |  | did not even suppress their proliferative activity | 
4 | VTDFGVFVEI [Amyloidogenic fragment from S1 T. thermophilus] |  |  |  |  |  |  |  |  |  |  |  |  |  |  |  |  |  |  |  | 913 µM
5 | VTDFGVFVEIGGGGSRQIKIWFQNRRMKWKK [V31K^T] |  | >2730 µM, MG1655 strain | >12 µM, K12 strain | >2730 µM, 2943 strain | >12 µM, 209P strain |  |  | >12 µM, ATCC 43300 strain | >2730 µM, 129B strain | >2730 µM, SA 180-F strain |  | >12 µM, ATCC 28753 |  | no significant antimicrobial effects |  |  |  |  |  | 
